Assay results from patent US10196390B2, “TYK2 inhibitors and uses thereof” (Nimbus Lakshmi, Inc., priority 2014, dated 2019).
pKi: −log10 of the molar value.

Each compound was assayed against TYK2 (Homo sapiens (Human), UniProt P29597) (assay: Tyk2 activity inhibition assay (radioactive kinase assay / Caliper assay)). Details: not given.
Format: biochemical
Method: Peptide substrate, [[…]], (20 μM) is prepared in reaction buffer (20 mM Hepes pH 7.5, 10 mM MgCl2, 1 mM EGTA, 0.02% Brij35, 0.02 mg/mL BSA, […], 2 mM DTT, 1% DMSO. TYK2 (Invitrogen) kinase is added, followed by compounds in DMSO. 33PATP is added to initiate the reaction in ATP at 10 μM. Kinase reaction is incubated for 120 min at room temp and reactions are spotted onto P81 ion exchange paper (Whatman #3698-915), and then washed extensively in 0.75% phosphoric acid, prior to reading the radioactivity counts. For JAK2 (Invitrogen) kinase assay the peptide substrate poly[Glu:Tyr](4:1), 0.2 mg/ml is used, in the reaction carried out the same as for TYK2.
(§1) The caliper machine employs an off chip mobility shift assay to detect phosphorylated peptide substrates from kinase assays, using microfluidics technology. The assays are carried out at ATP concentration equivalent to the ATP Km, and at 1 mM ATP. Compounds are serially diluted in DMSO then further diluted in assay buffer (25 mM HEPES, pH 7.5, 0.01% Brij-35, 0.01% Triton, 0.5 mM EGTA). 5 ul of diluted compound was added into wells first, then 10 ul of enzyme mix was added into wells, followed by 10 uL of substrate mix (peptide and ATP in 10 mM MgCl2) to start reaction. Reaction was incubated at 28° C. for 25 min and then added 25 ul stop buffer (100 mM HEPES, 0.015% Brij-35, 50 mM EDTA), followed by reading with Caliper. JAK2 at 1 nM final concentration and TYK2 at 9.75 nM are from Carna, and substrates used are ATP at 20 and 16 uM, respectively. JAK2 assay uses peptide 22 and TYK2 uses peptide 30 (Caliper), each at 3 uM.

TYK2, sequence (P29597 whole entry): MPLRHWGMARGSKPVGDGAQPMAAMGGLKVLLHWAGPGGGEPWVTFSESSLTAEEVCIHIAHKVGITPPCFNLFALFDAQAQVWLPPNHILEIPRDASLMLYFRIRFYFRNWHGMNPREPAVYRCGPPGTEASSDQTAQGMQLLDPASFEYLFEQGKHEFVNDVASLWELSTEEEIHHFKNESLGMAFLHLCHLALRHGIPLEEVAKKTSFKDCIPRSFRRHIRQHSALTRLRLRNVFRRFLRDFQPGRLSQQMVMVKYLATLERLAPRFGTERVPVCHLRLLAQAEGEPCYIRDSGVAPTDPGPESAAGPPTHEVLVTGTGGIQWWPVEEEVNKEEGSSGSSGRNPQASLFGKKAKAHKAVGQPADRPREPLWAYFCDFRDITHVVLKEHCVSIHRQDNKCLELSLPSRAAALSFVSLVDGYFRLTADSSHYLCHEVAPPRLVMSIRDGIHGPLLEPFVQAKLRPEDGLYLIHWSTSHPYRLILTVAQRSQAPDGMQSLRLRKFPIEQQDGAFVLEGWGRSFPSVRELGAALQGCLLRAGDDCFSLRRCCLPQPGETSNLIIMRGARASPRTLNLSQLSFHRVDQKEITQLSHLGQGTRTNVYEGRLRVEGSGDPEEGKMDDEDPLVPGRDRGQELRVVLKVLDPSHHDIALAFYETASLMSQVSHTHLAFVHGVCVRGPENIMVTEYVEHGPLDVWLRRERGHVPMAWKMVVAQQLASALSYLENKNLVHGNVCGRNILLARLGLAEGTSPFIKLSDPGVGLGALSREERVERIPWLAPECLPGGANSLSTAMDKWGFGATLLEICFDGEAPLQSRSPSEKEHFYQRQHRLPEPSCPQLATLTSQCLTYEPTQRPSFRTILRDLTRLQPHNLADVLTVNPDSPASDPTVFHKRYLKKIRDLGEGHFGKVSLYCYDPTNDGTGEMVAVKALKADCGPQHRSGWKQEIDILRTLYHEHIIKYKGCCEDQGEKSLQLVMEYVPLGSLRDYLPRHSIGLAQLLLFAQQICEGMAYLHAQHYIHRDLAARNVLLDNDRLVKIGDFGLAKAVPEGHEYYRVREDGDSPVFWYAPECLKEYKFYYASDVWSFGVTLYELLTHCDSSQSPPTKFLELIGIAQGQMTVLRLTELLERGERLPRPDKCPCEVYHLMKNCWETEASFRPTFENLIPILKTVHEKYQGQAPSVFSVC

| pKi | Compound |
| --- | --- |
| 6.00 to 7.00 | COc1ccc(Nc2cc(-c3c(F)cccc3F)nc3c2C(=O)N[C@H]3C)nc1 [Compound I-241, (S)-2-(2,6-difluorophenyl)-4-((5-methoxypyridin-2-yl)amino)-7-methyl-6,7-dihydro-5H-pyrrolo[3,4-b]pyridin-5-one] |

Each compound was assayed against JAK2 (Homo sapiens (Human), UniProt O60674) (assay: JAK2 activity inhibition assay (radioactive kinase assay / Caliper assay)). Details: read-out: JAK2 Ki.
Format: biochemical
Method: as §1, with “The assays are carried out at ATP concentration equivalent to the ATP Km, and at 1 mM ATP.” left out, “Caliper.” for “Caliper. JAK2 at 1 nM final concentration and TYK2 at 9.75 nM are from Carna, and substrates used are ATP at 20 and 16 uM, respectively. JAK2 assay uses peptide 22 and TYK2 uses peptide 30 (Caliper), each at 3 uM.”

JAK2, sequence (O60674 whole entry): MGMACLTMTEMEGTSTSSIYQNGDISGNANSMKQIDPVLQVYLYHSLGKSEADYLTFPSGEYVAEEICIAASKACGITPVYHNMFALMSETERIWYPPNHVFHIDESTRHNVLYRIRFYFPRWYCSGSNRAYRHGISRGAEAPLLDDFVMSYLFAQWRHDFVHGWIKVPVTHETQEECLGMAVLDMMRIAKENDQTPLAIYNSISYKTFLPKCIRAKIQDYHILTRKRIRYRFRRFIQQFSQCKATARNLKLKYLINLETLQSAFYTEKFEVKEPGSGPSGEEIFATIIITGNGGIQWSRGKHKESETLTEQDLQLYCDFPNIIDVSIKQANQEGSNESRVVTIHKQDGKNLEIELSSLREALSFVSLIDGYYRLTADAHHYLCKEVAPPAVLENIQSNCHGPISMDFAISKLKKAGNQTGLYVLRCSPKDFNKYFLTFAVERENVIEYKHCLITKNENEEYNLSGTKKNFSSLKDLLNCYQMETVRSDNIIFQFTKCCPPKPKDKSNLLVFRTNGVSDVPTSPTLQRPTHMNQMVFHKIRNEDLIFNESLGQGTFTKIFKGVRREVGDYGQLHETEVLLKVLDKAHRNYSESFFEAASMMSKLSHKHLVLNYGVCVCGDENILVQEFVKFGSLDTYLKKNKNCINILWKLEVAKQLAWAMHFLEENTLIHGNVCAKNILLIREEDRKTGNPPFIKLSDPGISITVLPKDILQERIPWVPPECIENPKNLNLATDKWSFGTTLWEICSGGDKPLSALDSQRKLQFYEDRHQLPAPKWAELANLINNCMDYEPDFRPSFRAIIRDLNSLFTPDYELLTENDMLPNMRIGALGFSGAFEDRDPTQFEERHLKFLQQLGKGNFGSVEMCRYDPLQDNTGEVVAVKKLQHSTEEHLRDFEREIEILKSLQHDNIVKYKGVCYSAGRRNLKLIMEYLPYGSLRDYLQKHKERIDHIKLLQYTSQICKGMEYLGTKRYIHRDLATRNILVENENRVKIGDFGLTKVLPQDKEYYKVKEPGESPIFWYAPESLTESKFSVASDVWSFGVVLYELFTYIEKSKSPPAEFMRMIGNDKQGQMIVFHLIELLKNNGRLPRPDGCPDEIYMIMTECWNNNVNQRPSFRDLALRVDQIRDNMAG

| Compound | pKi |
| --- | --- |
| O=C1NCc2nc(-c3c(F)cccc3F)cc(Nc3ccc(N4CCCC(O)C4)cn3)c21 (stereo not drawn) [Compound I-269, 2-(2,6-difluorophenyl)-4-((5-(3-hydroxypiperidin-1-yl)pyridin-2-yl)amino)-6,7-dihydro-5H-pyrrolo[3,4-b]pyridin-5-one] | 7.00 to 8.00 |
| COCCNC(=O)c1ccc(Nc2cc(-c3c(F)cccc3F)nc3c2C(=O)NC3)nc1 [Compound I-141, 6-((2-(2,6-difluorophenyl)-5-oxo-6,7-dihydro-5H-pyrrolo[3,4-b]pyridin-4-yl)amino)-N-(2-methoxyethyl)nicotinamide] | 7.00 to 8.00 |
| COc1ccc(Nc2cc(-c3c(F)cccc3F)nc3c2C(=O)NC3C)nc1 (stereo not drawn) [Compound I-239, 2-(2,6-difluorophenyl)-4-((5-methoxypyridin-2-yl)amino)-7-methyl-6,7-dihydro-5H-pyrrolo[3,4-b]pyridin-5-one] | 6.00 to 7.00 |
| CC1(O)CCN(C(=O)c2ccc(Nc3cc(-c4c(F)cccc4F)nc4c3C(=O)NC4)cc2)CC1 [Compound I-275, 2-(2,6-difluorophenyl)-4-((4-(4-hydroxy-4-methylpiperidine-1-carbonyl)phenyl)amino)-6,7-dihydro-5H-pyrrolo[3,4-b]pyridin-5-one] | 7.00 to 8.00 |
| O=C1NCc2nc(-c3c(F)cccc3F)c(F)c(Nc3ccc(N4CCOCC4)cn3)c21 [Compound I-254, 2-(2,6-difluorophenyl)-3-fluoro-4-((5-morpholinopyridin-2-yl)amino)-6,7-dihydro-5H-pyrrolo[3,4-b]pyridin-5-one] | 7.00 to 8.00 |
| O=C(Cc1ccc(Nc2nc(-c3c(F)cccc3F)nc3c2C(=O)NC3)cc1)NC1CNC1 [Compound I-12, N-(azetidin-3-yl)-2-(4-((2-(2,6-difluorophenyl)-5-oxo-6,7-dihydro-5H-pyrrolo[3,4-d]pyrimidin-4-yl)amino)phenyl)acetamide] | 6.00 to 7.00 |
| C[C@H](C(=O)O)c1ccc(Nc2nc(-c3c(F)cccc3F)nc3c2C(=O)NC3)cc1 [Compound I-191, (S)-2-(4-((2-(2,6-difluorophenyl)-5-oxo-6,7-dihydro-5H-pyrrolo-[3,4-d]pyrimidin-4-yl)amino)phenyl)propanoic Acid] | 6.00 to 7.00 |
| CN1CCN(C)C(C)(c2ccc(Nc3nc(-c4c(F)cccc4F)nc4c3C(=O)NC4)cc2)C1=O (stereo not drawn) [Compound I-209, 2-(2,6-difluorophenyl)-4-((4-(1,2,4-trimethyl-3-oxopiperazin-2-yl)phenyl)amino)-6,7-dihydro-5H-pyrrolo[3,4-d]pyrimidin-5-one] | 7.00 to 8.00 |
| CC1(C)CCN(c2ccc(Nc3cc(-c4c(F)cccc4F)nc4c3C(=O)NC4)nc2)CC1 [Compound I-252, 2-(2,6-difluorophenyl)-4-((5-(4,4-dimethylpiperidin-1-yl)pyridin-2-yl)amino)-6,7-dihydro-5H-pyrrolo[3,4-b]pyridin-5-one] | 6.00 to 7.00 |
| C[C@@H]1CCC[C@H](C)N1c1ccc(Nc2cc(-c3c(F)cccc3F)nc3c2C(=O)NC3)nc1 [Compound I-261, 2-(2,6-difluorophenyl)-4-((5-((2R,6S)-2,6-dimethylpiperidin-1-yl)pyridin-2-yl)amino)-6,7-dihydro-5H-pyrrolo[3,4-b]pyridin-5-one] | 7.00 to 8.00 |
| CC1(c2ccc(Nc3nc(-c4c(F)cccc4F)nc4c3C(=O)NC4)cc2)COC1 [Compound I-255, 2-(2,6-difluorophenyl)-4-((4-(3-methyloxetan-3-yl)phenyl)-amino)-6,7-dihydro-5H-pyrrolo[3,4-d]pyrimidin-5-one] | 7.00 to 8.00 |
| CC1(C)CN(c2ccc(Nc3cc(-c4c(F)cccc4F)nc4c3C(=O)NC4)nc2)CC[C@@H]1O [Compound I-267, (S)-2-(2,6-difluorophenyl)-4-((5-(4-hydroxy-3,3-dimethylpiperidin-1-yl)pyridin-2-yl)amino)-6,7-dihydro-5H-pyrrolo[3,4-b]pyridin-5-one] | 7.00 to 8.00 |
| CC1COCCN1c1ccc(Nc2cc(-c3c(F)cccc3F)nc3c2C(=O)NC3)nc1 (stereo not drawn) [Compound I-244, 2-(2,6-difluorophenyl)-4-((5-(3-methylmorpholino)pyridin-2-yl)amino)-6,7-dihydro-5H-pyrrolo[3,4-b]pyridin-5-one] | 7.00 to 8.00 |
| COC(=O)C(C)c1ccc(Nc2nc(-c3c(F)cccc3F)nc3c2C(=O)NC3)cc1 (stereo not drawn) [Compound I-188, methyl 2-(4-((2-(2,6-difluorophenyl)-5-oxo-6,7-dihydro-5H-pyrrolo[3,4-d]pyrimidin-4-yl)amino)phenyl)propanoate] | 7.00 to 8.00 |

Further lines, results first:

| pKi | Compound |
| --- | --- |
| 6.00 to 7.00 | O=C1NCc2nc(-c3c(F)cccc3F)cc(Nc3ccc(F)cc3)c21 [Compound I-235, 2-(2,6-difluorophenyl)-4-((4-fluorophenyl)amino)-6,7-dihydro-5H-pyrrolo[3,4-b]pyridin-5-one] |
| 7.00 to 8.00 | CC[C@]1(c2ccc(Nc3nc(-c4c(F)cccc4F)nc4c3C(=O)NC4)cc2)CCNC1=O [Compound I-177, (R)-2-(2,6-difluorophenyl)-4-((4-(3-ethyl-2-oxopyrrolidin-3-yl)phenyl)amino)-6,7-dihydro-5H-pyrrolo[3,4-d]pyrimidin-5-one] |
| 6.00 to 7.00 | CCNC(=O)c1cnc(Nc2cc(-c3c(F)cccc3F)nc3c2C(=O)NC3)cc1F [Compound I-286, 6-((2-(2,6-difluorophenyl)-5-oxo-6,7-dihydro-5H-pyrrolo[3,4-b]pyridin-4-yl)amino)-N-ethyl-4-fluoronicotinamide] |
| 7.00 to 8.00 | CN1CCN(C)[C@](C)(c2ccc(Nc3nc(-c4c(F)cccc4F)nc4c3C(=O)NC4)cc2)C1=O [Compound I-210, (R)-2-(2,6-difluorophenyl)-4-((4-(1,2,4-trimethyl-3-oxopiperazin-2-yl)phenyl)amino)-6,7-dihydro-5H-pyrrolo[3,4-d]pyrimidin-5-one] |
| 7.00 to 8.00 | O=C1NCc2nc(-c3c(F)cccc3F)cc(Nc3ccc(C(=O)N4CCOCC4)cn3)c21 [Compound I-212, 2-(2,6-difluorophenyl)-4-((5-(morpholine-4-carbonyl)pyridin-2-yl)amino)-6,7-dihydro-5H-pyrrolo[3,4-b]pyridin-5-one] |
| 7.00 to 8.00 | CCNC(=O)c1ccc(Nc2cc(-c3c(F)cccc3Cl)nc3c2C(=O)NC3)nc1 [Compound I-146, 6-((2-(2-chloro-6-fluorophenyl)-5-oxo-6,7-dihydro-5H-pyrrolo[3,4-b]pyridin-4-yl)amino)-N-ethylnicotinamide] |
| 6.00 to 7.00 | C[C@@H](C(=O)O)c1ccc(Nc2nc(-c3c(F)cccc3F)nc3c2C(=O)NC3)cc1 [Compound I-190, (R)-2-(4-((2-(2,6-difluorophenyl)-5-oxo-6,7-dihydro-5H-pyrrolo-[3,4-d]pyrimidin-4-yl)amino)phenyl)propanoic Acid] |
| 7.00 to 8.00 | O=C1NCc2nc(-c3c(F)cccc3F)cc(Nc3ccc(N4C5COCC4C5)cn3)c21 [Compound I-279, 4-((5-(3-oxa-6-azabicyclo[3.1.1]heptan-6-yl)pyridin-2-yl)amino)-2-(2,6-difluorophenyl)-6,7-dihydro-5H-pyrrolo[3,4-b]pyridin-5-one] |
| 7.00 to 8.00 | CCC1(c2ccc(Nc3nc(-c4c(F)cccc4F)nc4c3C(=O)NC4)cc2)CCNC1=O (stereo not drawn) [Compound I-175, 2-(2,6-difluorophenyl)-4-((4-(3-ethyl-2-oxopyrrolidin-3-yl)phenyl)amino)-6,7-dihydro-5H-pyrrolo[3,4-d]pyrimidin-5-one] |
| 7.00 to 8.00 | O=C1NCc2nc(-c3c(F)cccc3F)cc(Nc3ccc(C4(O)CCOCC4)cn3)c21 [Compound I-251, 2-(2,6-difluorophenyl)-4-((5-(4-hydroxytetrahydro-2H-pyran-4-yl)pyridin-2-yl)amino)-6,7-dihydro-5H-pyrrolo[3,4-b]pyridin-5-one] |
| 7.00 to 8.00 | O=C1NCc2nc(-c3c(F)cccc3F)cc(Nc3ccc(C4=CCOCC4)cn3)c21 [Compound I-249, 2-(2,6-difluorophenyl)-4-((5-(3,6-dihydro-2H-pyran-4-yl)pyridin-2-yl)amino)-6,7-dihydro-5H-pyrrolo[3,4-b]pyridin-5-one] |
| 7.00 to 8.00 | CC1(C)CCCC(=O)N1c1ccc(Nc2cc(-c3c(F)cccc3F)nc3c2C(=O)NC3)nc1 [Compound I-284, 2-(2,6-difluorophenyl)-4-((5-(2,2-dimethyl-6-oxopiperidin-1-yl)pyridin-2-yl)amino)-6,7-dihydro-5H-pyrrolo[3,4-b]pyridin-5-one] |
